# According to ChEMBL document CHEMBL5042477, “Potent Cyclic Peptide Inhibitors of FXIIa Discovered by mRNA Display with Genetic Code Reprogramming” (J Med Chem, 2021):
# The source made the active and inactive calls. No cut-off for these calls is given here. Where a SMILES comes first, the peptide text is derived from it. Bridges are numbered along the chain shown (N, C = ends). [ ]: non-standard residue; d: D form. Tyr(3-NO2) = N[C@@H](Cc1ccc(O)c([N+](=O)[O-])c1)C(=O)O; Phe(4-CN) = N#Cc1ccc(C[C@H](N)C(=O)O)cc1; 2Nal = N[C@@H](Cc1ccc2ccccc2c1)C(=O)O; hArg = N=C(N)NCCCC[C@H](N)C(=O)O
# Legend:
# Coagulation factor XII [1] = target: T1, Coagulation factor XII (Homo sapiens, UniProt P00748); test: Inhibition of human factor 12a using H-D-Pro-Phe-Arg-p-nitroanilide as chromogenic substrate assessed as liberation of p-nitroaniline measured every 5 mins for 60 min by multimode plate reader analysis
# T1 sequence (P00748 whole entry): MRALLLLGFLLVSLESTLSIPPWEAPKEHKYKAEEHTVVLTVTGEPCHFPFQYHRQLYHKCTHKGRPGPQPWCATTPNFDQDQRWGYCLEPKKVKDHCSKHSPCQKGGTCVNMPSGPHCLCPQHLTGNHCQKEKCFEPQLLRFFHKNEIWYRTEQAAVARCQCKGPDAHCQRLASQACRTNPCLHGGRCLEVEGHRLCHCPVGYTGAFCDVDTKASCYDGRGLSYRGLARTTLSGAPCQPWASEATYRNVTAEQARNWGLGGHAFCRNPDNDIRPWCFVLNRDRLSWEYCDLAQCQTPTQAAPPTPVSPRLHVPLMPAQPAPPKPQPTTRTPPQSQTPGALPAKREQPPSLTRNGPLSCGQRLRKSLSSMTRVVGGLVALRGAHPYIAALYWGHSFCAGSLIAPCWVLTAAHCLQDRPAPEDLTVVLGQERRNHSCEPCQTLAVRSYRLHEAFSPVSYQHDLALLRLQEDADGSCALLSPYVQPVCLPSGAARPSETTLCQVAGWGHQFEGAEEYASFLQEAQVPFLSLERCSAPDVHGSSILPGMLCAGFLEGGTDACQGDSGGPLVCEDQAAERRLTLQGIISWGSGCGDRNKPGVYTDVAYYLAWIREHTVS
# Coagulation factor XII [2] = target: T1, Coagulation factor XII; test: Inhibition of human factor 12a using H-D-Pro-Phe-Arg-p-nitroanilide as chromogenic substrate assessed as liberation of p-nitroaniline in presence of BSA measured every 5 mins for 60 min by multimode plate reader analysis
# Coagulation factor X = Coagulation factor X (Homo sapiens, UniProt P00742); test: Inhibition of human factor 10a using methoxycarbonyl-D-Nle-Gly-Arg-pNA as substrate measured after 60 mins by microplate reader analysis
# Plasma [3] = test: Anticoagulant activity in pooled human plasma assessed as prolongation of activated partial thromboplastin time at 12.5 uM incubated for 7 mins; type: functional, cell-free
# Plasma [4] = test: Anticoagulant activity in pooled human plasma assessed as prolongation of prothrombin time at 12.5 uM incubated for 7 mins; type: functional, cell-free
# Plasma [5] = test: Anticoagulant activity in pooled human plasma assessed as reduction in ellagic acid induced thrombin generation using Z-GGR-AMC as fluorogenic substrate by calibrated automated thrombogram analysis; type: functional, cell-free
# Plasma [6] = test: Anticoagulant activity in FXII-deficient human plasma assessed as effect on total thrombin generation using Z-GGR-AMC as fluorogenic substrate at 8 uM by calibrated automated thrombogram analysis; type: functional, cell-free
# Homo sapiens = species on record: Homo sapiens; test: Selectivity index, ratio of IC50 for inhibition of human factor 12a using H-D-Pro-Phe-Arg-p-nitroanilide as chromogenic substrate to IC50 for inhibition of human factor 10a using methoxycarbonyl-D-Nle-Gly-Arg-pNA as substrate
# Sequence of Coagulation factor X (P00742 41-179 limits assumed): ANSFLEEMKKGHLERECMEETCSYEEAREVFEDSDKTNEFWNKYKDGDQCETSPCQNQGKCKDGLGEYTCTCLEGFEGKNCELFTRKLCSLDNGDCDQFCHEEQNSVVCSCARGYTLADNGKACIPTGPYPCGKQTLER
# Sequence of Coagulation factor X (P00742 235-488 limits assumed): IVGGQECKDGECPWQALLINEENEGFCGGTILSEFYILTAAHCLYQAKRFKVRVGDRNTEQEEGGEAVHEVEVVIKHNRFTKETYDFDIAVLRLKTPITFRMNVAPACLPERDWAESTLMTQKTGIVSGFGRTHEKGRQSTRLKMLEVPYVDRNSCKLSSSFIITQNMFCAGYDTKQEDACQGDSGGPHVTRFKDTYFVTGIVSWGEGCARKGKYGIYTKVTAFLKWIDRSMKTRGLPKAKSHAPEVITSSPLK
SMILES,IC50 (Coagulation factor XII [1]) [µM],other results
CC[C@H](C)[C@@H]1NC(=O)[C@H](Cc2c[nH]cn2)NC(=O)[C@H](CCCCN)NC(=O)[C@H](Cc2ccccc2)NC(=O)[C@H](CCCNC(=N)N)NC(=O)[C@H](CC(C)C)NC(=O)[C@H](Cc2ccc(O)cc2)NC(=O)CSC[C@@H](C(N)=O)NC(=O)CNC(=O)CNC(=O)[C@H](CC(C)C)NC(=O)[C@H](CO)NC1=O ({CH2CO}-YLRFKHISLGGC-NH2; thioether N-12),0.234,IC50 (Coagulation factor XII [2]): 0.311 µM; IC50 (Coagulation factor X): 17 µM; Activity (Plasma [3]): Active; Activity (Plasma [4]): Active; EC50 (Plasma [5]): 3.2 µM; Activity (Plasma [6]): inactive; Ratio IC50 (Homo sapiens): 100
CC(C)C[C@H](NC(=O)[C@H](C)NC(=O)[C@H](CO)NC(=O)[C@H](CCC(=O)O)NC(=O)[C@H](Cc1ccc(O)cc1)NC(=O)[C@H](CCCNC(=N)N)NC(=O)[C@@H]1CSCC(=O)N[C@@H](Cc2ccc(O)cc2)C(=O)N[C@@H](CC(C)C)C(=O)N[C@@H](CCCNC(=N)N)C(=O)N[C@@H](Cc2ccccc2)C(=O)N[C@@H]([C@@H](C)O)C(=O)N[C@@H](CC(C)C)C(=O)N1)C(=O)N[C@@H](CO)C(N)=O ({CH2CO}-YLRFTLCRYESALS-NH2; thioether N-7),0.372,IC50 (Coagulation factor XII [2]): 0.673 µM; IC50 (Coagulation factor X): 2.2 µM
CC(C)C[C@@H]1NC(=O)[C@H](CCC(N)=O)NC(=O)[C@H](CCCNC(=N)N)NC(=O)[C@@H]2CSCCC(=O)N3CN(CN(C3)C(=O)CCSC[C@H](NC(=O)[C@@H](N)CCCNC(=N)N)C(=O)N[C@@H](Cc3ccccc3)C(=O)N[C@@H](CCCNC(=N)N)C(=O)N[C@@H](CC(C)C)C(=O)N3CCC[C@H]3C(=O)N2)C(=O)CCSC[C@@H](C(=O)N[C@@H](CCCNC(=N)N)C(=O)O)NC(=O)[C@H](CCCNC(=N)N)NC1=O,0.142,IC50 (Coagulation factor XII [2]): 0.173 µM
CC[C@H](C)[C@@H]1NC(=O)[C@H](C)NC(=O)[C@H](CCCCN)NC(=O)[C@H](Cc2ccccc2)NC(=O)[C@H](CCCNC(=N)N)NC(=O)[C@H](CC(C)C)NC(=O)[C@H](Cc2ccc(O)cc2)NC(=O)CSC[C@@H](C(N)=O)NC(=O)CNC(=O)CNC(=O)[C@H](CC(C)C)NC(=O)[C@H](CO)NC1=O ({CH2CO}-YLRFKAISLGGC-NH2; thioether N-12),0.18,IC50 (Coagulation factor X): 41 µM
CC[C@H](C)[C@@H]1NC(=O)[C@H](CC(C)C)NC(=O)[C@H](Cc2ccc(O)cc2)NC(=O)CSC[C@@H](C(=O)N[C@H](C(=O)N[C@@H](CO)C(=O)N[C@@H](CCCNC(=N)N)C(=O)N[C@@H](CCCNC(=N)N)C(=O)N[C@@H](C)C(=O)N[C@@H](Cc2ccccc2)C(=O)N[C@@H](Cc2ccccc2)C(=O)N[C@H](C(=O)N[C@@H](CC(=O)O)C(=O)N[C@@H](CCC(N)=O)C(=O)N[C@@H](CO)C(N)=O)[C@@H](C)O)C(C)C)NC1=O ({CH2CO}-YLICVSRRAFFTDQS-NH2; thioether N-4),> 100,IC50 (Coagulation factor X): > 100 µM
COc1ccc(C[C@@H]2NC(=O)CSC[C@@H](C(N)=O)NC(=O)CNC(=O)CNC(=O)[C@H](CCCNC(=N)N)NC(=O)[C@H](CC(=O)O)NC(=O)[C@H](CCCCN)NC(=O)[C@@H]3CCCN3C(=O)[C@H](CCCNC(=N)N)NC(=O)[C@H](Cc3ccccc3)NC(=O)[C@H](CCCNC(=N)N)NC(=O)[C@H](CC(C)C)NC2=O)cc1 ({CH2CO}-Y(Me)LRFRPKDRGGC-NH2; thioether N-12),0.53,
CC(C)C[C@@H]1NC(=O)[C@H](Cc2ccc(O)cc2)NC(=O)CSC[C@@H](C(N)=O)NC(=O)CNC(=O)CNC(=O)[C@H](C)NC(=O)[C@H](CC(N)=O)NC(=O)[C@H]([C@@H](C)O)NC(=O)[C@@H]2CCCN2C(=O)[C@H](CCCCN)NC(=O)[C@H](CC(C)C)NC(=O)[C@H](CCCNC(=N)N)NC1=O ({CH2CO}-YLRLKPTNAGGC-NH2; thioether N-12),1,
CC(C)C[C@@H]1NC(=O)[C@H](Cc2ccc(O)cc2)NC(=O)CSC[C@@H](C(N)=O)NC(=O)CNC(=O)CNC(=O)[C@H](CCCNC(=N)N)NC(=O)[C@H](CC(=O)O)NC(=O)[C@H](C)NC(=O)[C@@H]2CCCN2C(=O)[C@H](CCCNC(=N)N)NC(=O)[C@H](Cc2ccccc2)NC(=O)[C@H](CCCNC(=N)N)NC1=O ({CH2CO}-YLRFRPADRGGC-NH2; thioether N-12),0.4,
CC(C)C[C@@H]1NC(=O)[C@H](C)NC(=O)[C@H](CC(C)C)NC(=O)[C@H](Cc2ccc(O)cc2)NC(=O)CSC[C@@H](C(N)=O)NC(=O)CNC(=O)CNC(=O)[C@H](CCC(N)=O)NC(=O)[C@H](CC(N)=O)NC(=O)[C@H]([C@@H](C)O)NC(=O)[C@@H]2CCCN2C(=O)[C@H](CCCCN)NC1=O ({CH2CO}-YLALKPTNQGGC-NH2; thioether N-12),850,
CC(C)C[C@@H]1NC(=O)[C@H](Cc2ccc(O)cc2)NC(=O)CSC[C@@H](C(N)=O)NC(=O)CNC(=O)CNC(=O)[C@H](CCCNC(=N)N)NC(=O)[C@H](CC(=O)O)NC(=O)[C@H](CCCCN)NC(=O)[C@@H]2CCCN2C(=O)[C@H](CCCNC(=N)N)NC(=O)[C@H](Cc2ccccc2)NC(=O)[C@H](C)NC1=O ({CH2CO}-YLAFRPKDRGGC-NH2; thioether N-12),110,
CC(C)C[C@@H]1NC(=O)[C@H](Cc2ccc(O)cc2)NC(=O)CSC[C@@H](C(N)=O)NC(=O)CNC(=O)[C@H](C)NC(=O)[C@H](CCCNC(=N)N)NC(=O)[C@H](CC(=O)O)NC(=O)[C@H](CCCCN)NC(=O)[C@@H]2CCCN2C(=O)[C@H](CCCNC(=N)N)NC(=O)[C@H](Cc2ccccc2)NC(=O)[C@H](CCCNC(=N)N)NC1=O ({CH2CO}-YLRFRPKDRAGC-NH2; thioether N-12),27,
CC(C)C[C@@H]1NC(=O)[C@H](Cc2ccc(O)cc2)NC(=O)CSC[C@@H](C(N)=O)NC(=O)CNC(=O)CNC(=O)[C@H](CCCNC(=N)N)NC(=O)[C@H](CC(=O)O)NC(=O)[C@H](CCCCN)NC(=O)[C@@H]2CCCN2C(=O)[C@H](CCCCNC(=N)N)NC(=O)[C@H](Cc2ccccc2)NC(=O)[C@H](CCCNC(=N)N)NC1=O ({CH2CO}-YLRF[hArg]PKDRGGC-NH2; thioether N-12),0.47,
CC(C)C[C@@H]1NC(=O)[C@H](Cc2ccc(O)cc2)NC(=O)CSC[C@@H](C(N)=O)NC(=O)CNC(=O)CNC(=O)[C@H](CCCNC(=N)N)NC(=O)[C@H](CC(=O)O)NC(=O)[C@H](CCCCN)NC(=O)[C@@H]2CCCN2C(=O)[C@H](CCCNC(=N)N)NC(=O)[C@H](Cc2ccc3ccccc3c2)NC(=O)[C@H](CCCNC(=N)N)NC1=O ({CH2CO}-YLR[2Nal]RPKDRGGC-NH2; thioether N-12),0.05,
CC(C)C[C@@H]1NC(=O)[C@H](Cc2ccc(O)cc2)NC(=O)CSC[C@@H](C(N)=O)NC(=O)CNC(=O)CNC(=O)[C@H](CCCNC(=N)N)NC(=O)[C@H](CC(=O)O)NC(=O)[C@H](CCCCN)NC(=O)[C@@H]2CCCN2C(=O)[C@H](CCCNC(=N)N)NC(=O)[C@H](Cc2ccc(C#N)cc2)NC(=O)[C@H](CCCNC(=N)N)NC1=O ({CH2CO}-YLR[Phe(4-CN)]RPKDRGGC-NH2; thioether N-12),0.09,
CC(C)C[C@@H]1NC(=O)[C@H]([C@@H](C)O)NC(=O)[C@H](Cc2ccccc2)NC(=O)[C@@H](CCCNC(=N)N)NC(=O)[C@@H](CC(C)C)NC(=O)[C@@H](Cc2ccc(O)cc2)NC(=O)CSC[C@@H](C(N)=O)NC1=O,3.8,
CC(C)C[C@@H]1NC(=O)[C@H](Cc2ccc(O)c([N+](=O)[O-])c2)NC(=O)CSC[C@@H](C(N)=O)NC(=O)CNC(=O)CNC(=O)[C@H](CCCNC(=N)N)NC(=O)[C@H](CC(=O)O)NC(=O)[C@H](CCCCN)NC(=O)[C@@H]2CCCN2C(=O)[C@H](CCCNC(=N)N)NC(=O)[C@H](Cc2ccccc2)NC(=O)[C@H](CCCNC(=N)N)NC1=O ({CH2CO}-[Tyr(3-NO2)]LRFRPKDRGGC-NH2; thioether N-12),90,
